Literature values in patent publication US8637078B2, “Bilayer tablet comprising telmisartan and diuretic” (Boehringer Ingelheim International GmbH, priority 2005, dated 2014).

What was measured:
[1] = both polymorphic forms A and B; physiological pH range of the gastrointestinal tract, pH 1 to 7
[2] = composition with 3 to 50 wt. % telmisartan in dissolving matrix (basic agent, surfactant or emulsifier, water-soluble diluent); known from WO 2004/028505

## CCCc1nc2c(C)cc(-c3nc4ccccc4n3C)cc2n1Cc1ccc(-c2ccccc2C(=O)O)cc1 [telmisartan, 4′-[2-n-propyl-4-methyl-6-(1-methylbenzimidazol-2-yl)-benzimidazol-1-ylmethyl]-biphenyl-2-carboxylic acid]
[1]
  solubility in aqueous systems: very poor solubility
[2]
  solubility raised by a factor: several hundred
